Experimental data taken from patent publication US20070015279A1, “Methods of Selecting Pancreatic Endocrine Cells Using Protein Synthesis Inhibitors” (AmCyte Inc., priority 2005, published 2007).

System: HD487B cells
Experiment: Puromycin selection of HD487B cells, insulin mRNA by quantitative RT-PCR
Assay type: cell-based, human
Experimental: In an attempt to see if other protein synthesis inhibitors have similar effect as hygromycin B on cultured pancreatic cells puromycin was used in a pilot experiment. We treated P0 cells from HD487B with puromycin at either 2.5 or 5 μg/mL concentrations in SM95/M7 (4:1) for overnight. The cells were recovered in the same medium without puromycin till reaching confluence and passaged to P1. P1 and P2 cells were cultured in SM95/M7 (9:1) with Wnt3a (20 ng/mL). P3 and P4 cells were cultured in SM95/M7 (4:1) with bFGF (50 ng/mL). P5 cells were cultured in maturation medium. We took portions of cells at each passages and analyzed insulin gene expression by quantitative RT-PCR and normalized to β-actin expression. Cells that survived puromycin treatment also expressed insulin at passages 1, 2, 3, 4, and 5.

Structure (SMILES): COc1ccc(C[C@H](N)C(=O)N[C@H]2[C@@H](O)[C@H](n3cnc4c(N(C)C)ncnc43)O[C@@H]2CO)cc1 [puromycin]
- Insulin expression (normalized to β-actin) (HD487B P1, 2.5 μg/mL @ P0): 3.96E−01
- Insulin expression (normalized to β-actin) (HD487B P1, 5 μg/mL @ P0): 8.48E−02
- Insulin expression (normalized to β-actin) (HD487B P2, 2.5 μg/mL @ P0): 1.39E−02
- Insulin expression (normalized to β-actin) (HD487B P2, 5 μg/mL @ P0): 2.51E−02
- Insulin expression (normalized to β-actin) (HD487B P3, 2.5 μg/mL @ P0): 9.89E−03
- Insulin expression (normalized to β-actin) (HD487B P3, 5 μg/mL @ P0): 2.63E−02
- Insulin expression (normalized to β-actin) (HD487B P4, 2.5 μg/mL @ P0): 3.46E−03
- Insulin expression (normalized to β-actin) (HD487B P5, 2.5 μg/mL @ P0): 1.83E−03
